The text below walks through data of patent US4017488A, “Process for preparing 7β-acylamino-7α-alkoxycephalosporins” (Sankyo Company Limited, priority 1974, dated 1977).

In brackets after ≈: the same amount, converted by molar mass.

Common to all, as to format: cell-based
Assay [1] has as its system broad range of disease germs. Kind of assay: Antimicrobial activities (general statement). As to conditions: statement in words.
Assay [2] relates to Staphylococcus aureus 209p. Kind of assay: Minimal inhibitory concentration, I A. The following applies: read-out: Minimal inhibitory concentrations. The text has this:
(§1) Minimal inhibitory concentrations of various microorganisms mcg/ml
*I A: Staphylococcus aureus 209p

The subject of assay [3] is Staphylococcus aureus (CP and PC resistant). Kind of assay: Minimal inhibitory concentration, I B. As to conditions: read-out: Minimal inhibitory concentrations.
Description: as §1
I B: Staphylococcus aureus (CP and PC resistant)

Assay [4] deals with Shigella flexneri Komagome. Kind of assay: Minimal inhibitory concentration, III. The following applies: read-out: Minimal inhibitory concentrations.
Description: as §1
III: Shigella flexneri Komagome

Assay [5] relates to Klebsiella neumoniae 846 (CER resistant). Kind of assay: Minimal inhibitory concentration, IV B. The following applies: read-out: Minimal inhibitory concentrations.
Description: as §1
IV B: Klebsiella neumoniae 846 (CER resistant)

Regarding `CO[C@@]1(NC(=O)CSc2nnc[nH]2)C(=O)N2C(C(=O)O)=C(COC(N)=O)CS[C@@H]21` [7β-(1,2,4-triazol-4H-3-yl)thioacetamido-7α-methoxy-3-carbamoyloxymethyl-3-cephem-4-carboxylic acid], in assay [1], the “anti-bacterial / antimicrobial activities” value was “excellent anti-bacterial activities against a broad range of disease germs”.

Regarding `CO[C@@]1(NC(=O)CSc2nncs2)C(=O)N2C(C(=O)O)=C(CSc3nnnn3C)CS[C@@H]21` [7β-(1,3,4-thiadiazol-2-yl)thioacetamido-7α-methoxy-3-(1-methyl-1H-tetrazol-5-yl)thiomethyl-3-cephem-4-carboxylic acid], the “anti-bacterial / antimicrobial activities” value in assay [1] was “excellent anti-bacterial activities against a broad range of disease germs”.

`CO[C@@]1(NC(=O)CSc2nncs2)C(=O)N2C(C(=O)O)=C(COC(C)=O)CS[C@@H]21` [7β-(1,3,4-thiadiazol-2-yl)thioacetamido-7α-methoxy-3-acetoxymethyl-3-cephem-4-carboxylic acid]: the “anti-bacterial / antimicrobial activities” value in assay [1] is “excellent anti-bacterial activities against a broad range of disease germs”.

Regarding `CO[C@@]1(NC(=O)CSc2nncs2)C(=O)N2C(C(=O)O)=C(COC(N)=O)CS[C@@H]21` [7β-(1,3,4-thiadiazol-2-yl)thioacetamido-7α-methoxy-3-carbamoyloxymethyl-3-cephem-4-carboxylic acid], the “anti-bacterial / antimicrobial activities” value in assay [1] was “excellent anti-bacterial activities against a broad range of disease germs”.

Turning to `CO[C@@]1(NC(=O)CSc2ccon2)C(=O)N2C(C(=O)O)=C(COC(C)=O)CS[C@@H]21` [7β-(3-isoxazolyl)thioacetamido-7α-methoxy-3-acetoxymethyl-3-cephem 4-carboxylic acid], the “anti-bacterial / antimicrobial activities” value in assay [1] is given as “excellent anti-bacterial activities against a broad range of disease germs”.

Turning to `CO[C@@]1(NC(=O)COc2ccon2)C(=O)N2C(C(=O)O)=C(CSc3nnnn3C)CS[C@@H]21` [7β-(3-isoxazolyloxy)acetamido-7α-methoxy-3-(1-methyl-1H-tetrazol-5-yl)thiomethyl-3-cephem-4-carboxylic acid], the MIC in assay [2] is 0.2 µg/mL (≈ 0.414 µM); in assay [3], 0.8 µg/mL (≈ 1.65 µM); in assay [4] it was 3.1 µg/mL (≈ 6.41 µM); in assay [5], greater than 400 µg/mL. For the same molecule, in assay [1], the “anti-bacterial / antimicrobial activities” value is recorded as “excellent anti-bacterial activities against a broad range of disease germs”.

In the case of `CO[C@@]1(NC(=O)COc2ccon2)C(=O)N2C(C(=O)O)=C(COC(C)=O)CS[C@@H]21` [7β-(3-isoxazolyloxy)acetamido-7α-methoxy-3-acetoxymethyl-3-cephem-4-carboxylic acid], the “anti-bacterial / antimicrobial activities” value in assay [1] is recorded as “excellent anti-bacterial activities against a broad range of disease germs”.

As for `CO[C@@]1(NC(=O)CSc2nnc(C)s2)C(=O)N2C(C(=O)O)=C(CSc3nnnn3C)CS[C@@H]21` [7β-(5-methyl-1,3,4-thiadiazol-2-yl)thioacetamido-7α-methoxy-3-(1-methyl-1H-tetrazol-5-yl)thiomethyl-3-cephem-4-carboxylic acid], the “anti-bacterial / antimicrobial activities” value in assay [1] is given as “excellent anti-bacterial activities against a broad range of disease germs”.

In the case of `CO[C@@]1(NC(=O)CSc2nnc(C)s2)C(=O)N2C(C(=O)O)=C(COC(N)=O)CS[C@@H]21` [7β-(5-methyl-1,3,4-thiadiazol-2-yl)thioacetamido-7α-methoxy-3-carbamoyloxymethyl-3-cephem-4-carboxylic acid], the “anti-bacterial / antimicrobial activities” value in assay [1] is “excellent anti-bacterial activities against a broad range of disease germs”.

On to `CO[C@@]1(NC(=O)CSc2ncc[nH]2)C(=O)N2C(C(=O)O)=C(CSc3nnnn3C)CS[C@@H]21` [7β-(imidazol-2-yl)thioacetamido-7α-methoxy-3-(1-methyl-1H-tetrazol-5-yl)thiomethyl-3-cephem-4-carboxylic acid], for which, in assay [1], the “anti-bacterial / antimicrobial activities” value was “excellent anti-bacterial activities against a broad range of disease germs”.

As for `CO[C@@]1(NC(=O)CSc2ncc[nH]2)C(=O)N2C(C(=O)O)=C(COC(C)=O)CS[C@@H]21` [7β-(imidazol-2-yl)thioacetamido-7α-methoxy-3-acetoxymethyl-3-cephem-4-carboxylic acid], the “anti-bacterial / antimicrobial activities” value in assay [1] is “excellent anti-bacterial activities against a broad range of disease germs”.

Turning to `CO[C@@]1(NC(=O)CSc2ncc[nH]2)C(=O)N2C(C(=O)O)=C(COC(N)=O)CS[C@@H]21` [7β-(imidazol-2-yl)thioacetamido-7α-methoxy-3-carbamoyloxymethyl-3-cephem-4-carboxylic acid], the “anti-bacterial / antimicrobial activities” value in assay [1] was “excellent anti-bacterial activities against a broad range of disease germs”.

Regarding `CO[C@@]1(NC(=O)CSCN=[N+]=[N-])C(=O)N2C(C(=O)O)=C(COC(C)=O)CS[C@@H]21` [7β-azidomethylthioacetamido-7α-methoxy-3-acetoxymethyl-3-cephem-4-carboxylic acid], the “anti-bacterial / antimicrobial activities” value in assay [1] is listed as “excellent anti-bacterial activities against a broad range of disease germs”.

For `CO[C@@]1(NC(=O)CSCC#N)C(=O)N2C(C(=O)O)=C(CSc3nnnn3C)CS[C@@H]21` [7β-cyanomethylthioacetamido-7α-methoxy-3-(1-methyl-1H-tetrazol-5-yl)thiomethyl-3-cephem-4-carboxylic acid], the “anti-bacterial / antimicrobial activities” value in assay [1] was “excellent anti-bacterial activities against a broad range of disease germs”.

For the molecule `CO[C@@]1(NC(=O)CSCC#N)C(=O)N2C(C(=O)O)=C(COC(C)=O)CS[C@@H]21` [7β-cyanomethylthioacetamido-7α-methoxy-3-acetoxymethyl-3-cephem-4-carboxylic acid], in assay [1], the “anti-bacterial / antimicrobial activities” value is “excellent anti-bacterial activities against a broad range of disease germs”.

Consider `CO[C@@]1(NC(=O)CSCC#N)C(=O)N2C(C(=O)O)=C(COC(N)=O)CS[C@@H]21` [7β-cyanomethylthioacetamido-7α-methoxy-3-carbamoyloxymethyl-3-cephem-4-carboxylic acid], for which the “anti-bacterial / antimicrobial activities” value in assay [1] is recorded as “excellent anti-bacterial activities against a broad range of disease germs”.

As to `C#CCSCC(=O)N[C@]1(OC)C(=O)N2C(C(=O)O)=C(CSc3nnnn3C)CS[C@@H]21` [7β-propargylthioacetamido-7α-methoxy-3-(1-methyl-1H-tetrazol-5-yl)thiomethyl-3-cephem-4-carboxylic acid], in assay [1], the “anti-bacterial / antimicrobial activities” value is reported as “excellent anti-bacterial activities against a broad range of disease germs”.

`C#CCSCC(=O)N[C@]1(OC)C(=O)N2C(C(=O)O)=C(COC(C)=O)CS[C@@H]21` [7β-propargylthioacetamido-7α-methoxy-3-acetoxymethyl-3-cephem-4-carboxylic acid]: the “anti-bacterial / antimicrobial activities” value in assay [1] was “excellent anti-bacterial activities against a broad range of disease germs”.

`C#CCSCC(=O)N[C@]1(OC)C(=O)N2C(C(=O)O)=C(COC(N)=O)CS[C@@H]21` [7β-propargylthioacetamido-7α-methoxy-3-carbamoyloxymethyl-3-cephem-4-carboxylic acid]: the “anti-bacterial / antimicrobial activities” value in assay [1] is listed as “excellent anti-bacterial activities against a broad range of disease germs”.
